# Reference: ChEMBL document CHEMBL4184159, “Delphinidin inhibits BDNF-induced migration and invasion in SKOV3 ovarian cancer cells” (2017)
# Calls of active or inactive are those of the source. No cut-off for these calls is given here.
# Legend:
# [1] = test system: SK-OV-3; test: Inhibition of BDNF-induced invasion in human SKOV3 cells at 20 uM after 24 hrs in by matrigel invasion assay; type: functional, cell-based
# [2] = molecular target: RAC-alpha serine/threonine-protein kinase (Homo sapiens) (UniProt P31749); test: Inhibition of BDNF-induced AKT phosphorylation in human SKOV3 cells after 24 hrs by Western blot analysis; type: cell-based
# RAC-alpha serine/threonine-protein kinase (Homo sapiens), sequence (P31749 whole entry): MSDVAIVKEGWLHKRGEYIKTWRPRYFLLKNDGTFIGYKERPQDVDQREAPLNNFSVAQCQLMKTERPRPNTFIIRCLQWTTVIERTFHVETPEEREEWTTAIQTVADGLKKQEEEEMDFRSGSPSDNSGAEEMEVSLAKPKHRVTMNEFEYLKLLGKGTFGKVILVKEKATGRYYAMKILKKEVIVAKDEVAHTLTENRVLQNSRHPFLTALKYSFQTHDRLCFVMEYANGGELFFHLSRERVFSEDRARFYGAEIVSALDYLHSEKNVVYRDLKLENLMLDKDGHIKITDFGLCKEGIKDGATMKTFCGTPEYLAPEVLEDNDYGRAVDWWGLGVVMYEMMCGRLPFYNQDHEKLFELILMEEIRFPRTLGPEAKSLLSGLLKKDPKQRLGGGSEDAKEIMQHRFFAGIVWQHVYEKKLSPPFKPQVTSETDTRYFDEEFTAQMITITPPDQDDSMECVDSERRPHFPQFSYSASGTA
# [3] = test system: SK-OV-3; test: Antimigratory activity against human SKOV3 cells assessed as inhibition of BDNF-induced cell migration at 20 uM after 24 hrs by scratch wound healing assay; type: functional, cell-based
# [4] = test system: SK-OV-3; test: Antimigratory activity against human SKOV3 cells assessed as inhibition of BDNF-induced cell migration after 24 hrs by scratch wound healing assay; type: functional, cell-based
# [5] = species on record: Homo sapiens; test: Inhibition of BDNF-induced NFkappaB nuclear translocation in human SKOV3 cells at 50 to 75 uM after 24 hrs by Western blot analysis; type: cell-based
# [6] = test system: SK-OV-3; test: Downregulation of BDNF-induced MMP9 mRNA expression in human SKOV3 cells after 24 hrs by qRT-PCR analysis; type: functional, cell-based
# [7] = test system: SK-OV-3; test: Antiproliferative activity against human SKOV3 cells at 100 uM after 24 hrs by CCK-8 assay; type: functional, cell-based
# [8] = test system: SK-OV-3; test: Antiproliferative activity against human SKOV3 cells at 50 uM after 24 hrs by CCK-8 assay; type: functional
# [9] = test system: SK-OV-3; test: Antiproliferative activity against human SKOV3 cells at 75 uM after 24 hrs by CCK-8 assay; type: functional
# [10] = test system: SK-OV-3; test: Antiproliferative activity against human SKOV3 cells at 10 uM after 24 hrs by CCK-8 assay; type: functional
# [11] = test system: SK-OV-3; test: Antiproliferative activity against human SKOV3 cells at 200 uM after 24 hrs by CCK-8 assay; type: functional, cell-based
# [12] = test system: SK-OV-3; test: Inhibition of BDNF-induced invasion in human SKOV3 cells after 24 hrs in by matrigel invasion assay; type: functional, cell-based
# [13] = test system: SK-OV-3; test: Downregulation of BDNF-induced MMP2 mRNA expression in human SKOV3 cells after 24 hrs by qRT-PCR analysis; type: functional, cell-based
# [14] = test system: SK-OV-3; test: Antiproliferative activity against human SKOV3 cells at 5 uM after 24 hrs by CCK-8 assay; type: functional
SMILES,inhibition [1],inhibition [2],inhibition [3],Activity [4],inhibition [5],Activity [6],Activity [7],Activity [8] [%],Activity [9] [%],Activity [10] [%],Activity [11],inhibition [12],Activity [13],Activity [14] [%]
O=c1cc(N2CCOCC2)oc2c(-c3ccccc3)cccc12,Active,Dose-dependent effect,Active,,,,,,,,,,,
Oc1cc(O)c2cc(O)c(-c3cc(O)c(O)c(O)c3)[o+]c2c1.[Cl-] [DELPHINIDIN CHLORIDE],,Dose-dependent effect,,Dose-dependent effect,Active,Dose-dependent effect,Active,>98,>98,>98,Active,Dose-dependent effect,Dose-dependent effect,>98
